Source: patent US9469615B2, “Quinoxalines and AZA-quinoxalines as CRTH2 receptor modulators” (Merck Sharp & Dohme Corp., priority 2010, dated 2016)

Biological target: T1, hCRTH2 (Homo sapiens, UniProt Q9Y5Y4)
T1 construct: expressed in transfected cells; host or cells: HEK (human embryonic kidney) cells expressing hCRTH2; membrane preparation
T1 sequence (Q9Y5Y4 1-395): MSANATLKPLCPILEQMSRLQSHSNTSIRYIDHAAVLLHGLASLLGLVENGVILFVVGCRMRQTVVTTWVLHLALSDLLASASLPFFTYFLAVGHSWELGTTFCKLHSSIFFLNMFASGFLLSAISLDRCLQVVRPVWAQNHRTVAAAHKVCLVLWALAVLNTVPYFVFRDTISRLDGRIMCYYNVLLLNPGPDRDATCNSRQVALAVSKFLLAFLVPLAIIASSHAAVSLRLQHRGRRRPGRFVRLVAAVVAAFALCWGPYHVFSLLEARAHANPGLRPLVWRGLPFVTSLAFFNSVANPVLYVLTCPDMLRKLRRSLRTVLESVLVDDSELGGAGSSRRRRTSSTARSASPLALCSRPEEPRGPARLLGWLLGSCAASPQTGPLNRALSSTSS
Assay: Radioligand binding assay ([3H]PGD2 competition, HEK-hCRTH2 membranes)
How it was run: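 Filter-bound radioactivity was counted by scintillation after 60 min incubations at room temperature. Membranes (8-20 μg) from HEK cells expressing hCRTH2 competed test ligands against 3.0 nM [3H]PGD2 in Tris-HCl pH 7.4 buffer with EDTA and 2 mM MnCl2; 10 μM PGD2 set non-specific binding.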

| SMILES | Ki ([3H]PGD2 competition, Table B) [nM] | Ki ([3H]PGD2 binding, values in text) [nM] |
| --- | --- | --- |
| Cn1ccnc1C1CCCCN1C(=O)c1ccc2nc(-c3ccc(Cl)cc3)c(CCCCC(=O)O)nc2c1 (stereo not shown) [compound 651, 5-(3-(4-chlorophenyl)-7-(2-(1-methyl-1H-imidazol-2-yl)piperidine-1-carbonyl)quinoxalin-2-yl)pentanoic acid] | 20.1 to 200 | – |
| Cc1nonc1C1CCCN1C(=O)c1ccc2nc(-c3ccc(Cl)cc3)c(CCCCC(=O)O)nc2c1 (stereo not shown) [compound 652, 5-(3-(4-chlorophenyl)-7-(2-(4-methyl-1,2,5-oxadiazol-3-yl)pyrrolidine-1-carbonyl)quinoxalin-2-yl)pentanoic acid] | 2.1 to 20 | – |
| Cc1csc(C(C)N(C)C(=O)c2ccc3nc(-c4ccc(Cl)cc4)c(CCCCC(=O)O)nc3c2)n1 (stereo not shown) [compound 655, 5-(3-(4-chlorophenyl)-7-(methyl(1-(4-methylthiazol-2-yl)ethyl)carbamoyl)quinoxalin-2-yl)pentanoic acid] | 2.1 to 20 | – |
| O=C(O)CCCCc1nc2cc(C(=O)N3CCCC34CCc3cc(F)ccc34)ccc2nc1-c1ccc(Cl)cc1 (stereo not shown) [compound 656, 5-(3-(4-chlorophenyl)-7-(5-fluoro-2,3-dihydrospiro [indene-1,2′-pyrrolidin]-1′-ylcarbonyl)quinoxalin-2-yl)pentanoic acid] | 2.1 to 20 | – |
| O=C(O)CCCCc1nc2cc(C(=O)N3CCCC34CCc3ccncc34)ccc2nc1-c1ccc(Cl)cc1 (stereo not shown) [compound 658, 5-(3-(4-chloro-phenyl)-7-(5,6-dihydrospiro [cyclopenta[c]pyridine-7,2′-pyrrolidin]-1′-ylcarbonyl)quinoxalin-2-yl)pentanoic acid] | 20.1 to 200 | – |
| O=C(O)CCCCc1nc2cc(C(=O)N3CCCC3c3nccs3)ccc2nc1-c1ccc(Cl)cc1 (stereo not shown) [compound 659, 5-(3-(4-chlorophenyl)-7-(2-(thiazol-2-yl)pyrrolidine-1-carbonyl)quinoxalin-2-yl)pentanoic acid] | 20.1 to 200 | – |
| Cc1noc(C2CCCCN2C(=O)c2ccc3nc(-c4ccc(Cl)cc4)c(CCCCC(=O)O)nc3c2)n1 (stereo not shown) [compound 660, 5-(3-(4-chlorophenyl)-7-(2-(3-methyl-1,2,4-oxadiazol-5-yl)piperidine-1-carbonyl)quinoxalin-2-yl)pentanoic acid] | 20.1 to 200 | – |
| O=C(O)CCCCc1nc2cc(C(=O)N3CCOC[C@H]3c3ccccc3)ccc2nc1-c1ccc(Cl)cc1 [compound 661, (R)-5-(3-(4-chlorophenyl)-7-(3-phenylmorphohne-4-carbonyl)quinoxalin-2-yl)pentanoic acid] | 2.1 to 20 | – |
| Cc1ccc(CN2CCN(C(=O)c3ccc4nc(-c5ccc(Cl)cc5)c(CCCCC(=O)O)nc4c3)CC2)cc1 [compound 664, 5-(3-(4-chlorophenyl)-7-(4-(4-methylbenzyl)piperazine-1-carbonyl)quinoxalin-2-yl)pentanoic acid] | 2.1 to 20 | – |
| Cc1ccc(N2CCN(C(=O)c3ccc4nc(-c5ccc(Cl)cc5)c(CCCCC(=O)O)nc4c3)CC2)cc1 [compound 665, 5-(3-(4-chlorophenyl)-7-(4-(p-tolyl)piperazine-1-carbonyl)quinoxalin-2-yl)pentanoic acid] | 2.1 to 20 | – |
| O=C(O)CCCCc1nc2cc(C(=O)N3CCN(Cc4cccc(F)c4)CC3)ccc2nc1-c1ccc(Cl)cc1 [compound 667, 5-(3-(4-chlorophenyl)-7-(4-(3-fluorobenzyl)piperazine-1-carbonyl)quinoxalin-2-yl)pentanoic acid] | 2.1 to 20 | – |
| C[C@@H]1CN(C(=O)c2ccc3nc(-c4ccc(Cl)cc4)c(CCCCC(=O)O)nc3c2)[C@@H](C)CN1c1ccccc1 [compound 672, 5-(3-(4-chlorophenyl)-7-((2S,5R)-2,5-dimethyl-4-phenylpiperazine-1-carbonyl)quinoxalin-2-yl)pentanoic acid] | 20.1 to 200 | – |
| CN1CCN(C(=O)c2ccc3nc(-c4ccc(Cl)cc4)c(CCCCC(=O)O)nc3c2)CC1c1ccccc1 (stereo not shown) [compound 674, 5-(3-(4-chlorophenyl)-7-(4-methyl-3-phenylpiperazine-1-carbonyl)quinoxalin-2-yl)pentanoic acid] | 2.1 to 20 | – |
| O=C(O)CCCCc1nc2cc(C(=O)N3CCN(c4ncccc4Cl)CC3)ccc2nc1-c1ccc(Cl)cc1 [compound 676, 5-(3-(4-chlorophenyl)-7-(4-(3-chloropyridin-2-yl)piperazine-1-carbonyl)quinoxalin-2-yl)pentanoic acid] | 2.1 to 20 | – |
| O=C(O)CCCCc1nc2cc(C(=O)N3C[C@@H]4C[C@H]3CN4c3cccc(F)c3)ccc2nc1-c1ccc(Cl)cc1 [compound 677, 5-(3-(4-chlorophenyl)-7-((1S,4S)-5-(3-fluorophenyl)-2,5-diazabicyclo[2.2.1]heptane-2-carbonyl)quinoxalin-2-yl)pentanoic acid] | 2.1 to 20 | – |
| O=C(O)CCCCc1nc2cc(C(=O)N3CCN(C4CCCCC4)C(=O)C3)ccc2nc1-c1ccc(Cl)cc1 [compound 678, 5-(3-(4-chlorophenyl)-7-(4-cyclohexyl-3-oxo-piperazine-1-carbonyl)quinoxalin-2-yl)pentanoic acid] | 2.1 to 20 | – |
| O=C(O)CCCCc1nc2cc(C(=O)N3C[C@@H]4C[C@H]3CN4c3ccc(F)cc3)ccc2nc1-c1ccc(Cl)cc1 [compound 680, 5-(3-(4-chlorophenyl)-7-((1S,4S)-5-(4-fluorophenyl)-2,5-diazabicyclo[2.2.1]heptane-2-carbonyl)quinoxalin-2-yl)pentanoic acid] | 2.1 to 20 | – |

Second part, the molecule after the results:

| Ki ([3H]PGD2 competition, Table B) [nM] | Ki ([3H]PGD2 binding, values in text) [nM] | SMILES |
| --- | --- | --- |
| 201 to 700 | – | O=C(O)CCCCc1nc2cc(C(=O)N3CCCCCC3c3cccnc3)ccc2nc1-c1ccc(Cl)cc1 (stereo not shown) [compound 653, 5-(3-(4-chlorophenyl)-7-(2-(pyridin-3-yl)azepane-1-carbonyl)quinoxalin-2-yl)pentanoic acid] |
| 20.1 to 200 | – | O=C(O)CCCCc1nc2cc(C(=O)N3CCCCC3c3nccs3)ccc2nc1-c1ccc(Cl)cc1 (stereo not shown) [compound 654, 5-(3-(4-chlorophenyl)-7-(2-(thiazol-2-yl)piperidine-1-carbonyl)quinoxalin-2-yl)pentanoic acid] |
| 20.1 to 200 | 37.4 | CC(c1ccon1)N(C)C(=O)c1ccc2nc(-c3ccc(Cl)cc3)c(CCCCC(=O)O)nc2c1 (stereo not shown) [compound 657, 5-(3-(4-chlorophenyl)-7-((1-(isoxazol-3-yl)ethyl)(methyl)carbamoyl)quinoxalin-2-yl) pentanoic acid] |
| 20.1 to 200 | – | O=C(O)CCCCc1nc2cc(C(=O)N3CCCC3c3ccccn3)ccc2nc1-c1ccc(Cl)cc1 (stereo not shown) [compound 662, 5-(3-(4-chlorophenyl)-7-(2-(pyridin-2-yl)pyrrolidine-1-carbonyl)quinoxalin-2-yl)pentanoic acid] |
| 2.1 to 20 | – | CC1Cc2ccccc2CCN1C(=O)c1ccc2nc(-c3ccc(Cl)cc3)c(CCCCC(=O)O)nc2c1 (stereo not shown) [compound 663, 5-(3-(4-chlorophenyl)-7-(2-methyl-2,3,4,5-tetrahydro-1H-benzo[d]azepine-3-carbonyl)quinoxalin-2-yl)pentanoic acid] |
| 2.1 to 20 | – | CN1CCN(C(=O)c2ccc3nc(-c4ccc(Cl)cc4)c(CCCCC(=O)O)nc3c2)C(c2ccccc2)C1 (stereo not shown) [compound 666, 5-(3-(4-chlorophenyl)-7-(4-methyl-2-phenylpiperazine-1-carbonyl)quinoxalin-2-yl)pentanoic acid] |
| 20.1 to 200 | – | O=C(O)CCCCc1nc2cc(C(=O)N3CCn4cc(C(F)(F)F)nc4C3)ccc2nc1-c1ccc(Cl)cc1 [compound 668, 5-(3-(4-chlorophertyl)-7-(2-(trifluoromethyl)-5,6,7,8-tetrahydroimidazo[1,2-a]pyrazine-7-carbonyl)quinoxalin-2-yl)pentanoic acid] |
| 2.1 to 20 | – | O=C(O)CCCCc1nc2cc(C(=O)N3CCN(c4ccc(Cl)cn4)CC3)ccc2nc1-c1ccc(Cl)cc1 [compound 669, 5-(3-(4-chlorophenyl)-7-(4-(5-chloropyridin-2-yl)piperazine-1-carbonyl)quinoxalin-2-yl)pentanoic acid] |
| 2.1 to 20 | – | Cc1nc(CN2CCN(C(=O)c3ccc4nc(-c5ccc(Cl)cc5)c(CCCCC(=O)O)nc4c3)CC2)cs1 [compound 670, 5-(3-(4-chlorophenyl)-7-(4-((2-methylthiazol-4-yl)methyl)piperazine-1-carbonyl)quinoxalin-2-yl)pentanoic acid] |
| 20.1 to 200 | – | Cn1cc(N2CCN(C(=O)c3ccc4nc(-c5ccc(Cl)cc5)c(CCCCC(=O)O)nc4c3)CC2)cn1 [compound 671, 5-(3-(4-chlorophenyl)-7-(4-(1-methyl-1H-pyrazol-4-yl)piperazine-1-carbonyl)quinoxalin-2-yl)pentanoic acid] |
| 20.1 to 200 | – | CCc1nnc2n1CCN(C(=O)c1ccc3nc(-c4ccc(Cl)cc4)c(CCCCC(=O)O)nc3c1)C2 [compound 673, 5-(3-(4-chlorophenyl)-7-(3-ethyl-5,6,7,8-tetrahydro-[1,2,4]triazolo[4,3-a]pyrazine-7-carbonyl)quinoxalin-2-yl)pentanoic acid] |
| 2.1 to 20 | – | Cc1nonc1N1CCN(C(=O)c2ccc3nc(-c4ccc(Cl)cc4)c(CCCCC(=O)O)nc3c2)CC1 [compound 675, 5-(3-(4-chlorophenyl)-7-(4-(4-methyl-1,2,5-oxadiazol-3-yl)piperazine-1-carbonyl)quinoxalin-2-yl)pentanoic acid] |
| 2.1 to 20 | – | O=C(O)CCCCc1nc2cc(C(=O)N3CCN(c4cccnc4)CC3)ccc2nc1-c1ccc(Cl)cc1 [compound 679, 5-(3-(4-chlorophenyl)-7-(4-(pyridin-3-y)piperazine-1-carbonyl)quinoxalin-2-yl)pentanoic acid] |
